Test results as given in ChEMBL document CHEMBL1159194, “Two pimarane diterpenoids from Ephemerantha lonchophylla and their evaluation as modulators of the multidrug resistance phenotype” (J Nat Prod, 1998).
The source made the active and inactive calls. The calls are words filed in the database; no cut-off is given here.

Columns and labels:
B16-F10 = assay: Effect on doxorubicin accumulation in mouse B16/F10 cells by fluorimetry; type: functional, cell-based
[1] = target: ATP-dependent translocase ABCB1 (Homo sapiens, UniProt P08183); assay: Inhibition of human MDR1 expressed in mouse B16/F10 cells assessed as increase in doxorubicin accumulation by fluorimetry; type: cell-based; conditions: read-out: ED50 (the source's name)
Sequence of ATP-dependent translocase ABCB1 (P08183 whole entry): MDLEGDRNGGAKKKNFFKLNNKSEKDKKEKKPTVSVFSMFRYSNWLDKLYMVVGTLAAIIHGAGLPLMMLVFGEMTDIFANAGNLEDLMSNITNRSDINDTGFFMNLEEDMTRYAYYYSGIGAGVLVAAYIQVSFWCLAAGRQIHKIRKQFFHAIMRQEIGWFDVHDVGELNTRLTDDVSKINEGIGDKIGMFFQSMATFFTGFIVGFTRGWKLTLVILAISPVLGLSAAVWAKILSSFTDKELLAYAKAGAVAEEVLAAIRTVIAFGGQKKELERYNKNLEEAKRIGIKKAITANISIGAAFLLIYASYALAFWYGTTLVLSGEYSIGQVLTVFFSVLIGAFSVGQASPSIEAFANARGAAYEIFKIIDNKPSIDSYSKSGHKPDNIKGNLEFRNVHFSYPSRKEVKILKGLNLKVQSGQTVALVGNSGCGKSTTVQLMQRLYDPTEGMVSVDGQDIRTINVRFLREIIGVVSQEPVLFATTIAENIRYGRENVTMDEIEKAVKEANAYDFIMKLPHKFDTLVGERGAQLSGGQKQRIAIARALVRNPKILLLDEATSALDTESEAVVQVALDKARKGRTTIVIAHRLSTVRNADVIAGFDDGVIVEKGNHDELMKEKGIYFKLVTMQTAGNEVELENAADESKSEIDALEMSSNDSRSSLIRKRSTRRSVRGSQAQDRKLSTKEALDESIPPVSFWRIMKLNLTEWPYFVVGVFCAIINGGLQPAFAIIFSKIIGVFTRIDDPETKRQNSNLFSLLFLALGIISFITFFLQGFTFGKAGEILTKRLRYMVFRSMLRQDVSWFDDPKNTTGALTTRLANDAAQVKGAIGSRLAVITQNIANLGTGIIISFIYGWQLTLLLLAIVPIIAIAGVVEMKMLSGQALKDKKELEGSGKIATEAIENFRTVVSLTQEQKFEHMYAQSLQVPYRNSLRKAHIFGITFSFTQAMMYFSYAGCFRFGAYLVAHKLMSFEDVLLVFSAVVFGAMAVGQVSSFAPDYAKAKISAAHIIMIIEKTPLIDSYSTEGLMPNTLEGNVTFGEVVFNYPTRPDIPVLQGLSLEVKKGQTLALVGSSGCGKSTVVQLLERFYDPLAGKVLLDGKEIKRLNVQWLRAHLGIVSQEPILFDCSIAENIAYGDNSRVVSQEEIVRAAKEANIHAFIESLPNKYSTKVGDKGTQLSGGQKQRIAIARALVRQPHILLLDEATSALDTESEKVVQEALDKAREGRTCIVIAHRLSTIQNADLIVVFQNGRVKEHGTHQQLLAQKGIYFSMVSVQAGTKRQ

Row | EC50 [1] | SMILES | Activity (B16-F10)
1 | 193 µM | CC1(C)C(=O)C(O)=C[C@]2(C)[C@H]3CC[C@@](C)(C(=O)CO)C=C3CC[C@@H]12 [LONCHOPHYLLOID A] | inactive
2 | 195 µM | CC1(C)[C@@H](O)CC[C@]2(C)[C@H]3CC[C@@](C)(C(=O)CO)C=C3CC[C@@H]12 [LONCHOPHYLLOID B] | inactive
